In US8541460B2, “PDK-1/Akt signaling inhibitors” (The Ohio State University, priority 2003, dated 2013):

What was measured:
SK-MEL-2 = assay: NCI DTP cell line screen (SRB), Melanoma; format: cell-based
Procedure: (§1) Screening of compounds 70 and 71 against several cancer cell lines The human tumor cell lines of the cancer screening panel are grown in RPMI 1640 medium containing 5% fetal bovine serum and 2 mM L-glutamine. For a typical screening experiment, cells are inoculated into 96 well microtiter plates in 100 μL at plating densities ranging from 5,000 to 40,000 cells/well depending on the doubling time of individual cell lines. After cell inoculation, the microtiter plates are incubated at 37° C., 5% CO2, 95% air and 100% relative humidity for 24 h prior to addition of experimental drugs.
(§2) After 24 h, two plates of each cell line are fixed in situ with TCA, to represent a measurement of the cell population for each cell line at the time of drug addition (Tz). Experimental drugs are solubilized in dimethyl sulfoxide at 400-fold the desired final maximum test concentration and stored frozen prior to use. At the time of drug addition, an aliquot of frozen concentrate is thawed and diluted to twice the desired final maximum test concentration with complete medium containing 50 μg/ml gentamicin. Additional four, 10-fold or ½ log serial dilutions are made to provide a total of five drug concentrations plus control. Aliquots of 100 μl of these different drug dilutions are added to the appropriate microtiter wells already containing 100 μl of medium, resulting in the required final drug concentrations.
(§3) Following drug addition, the plates are incubated for an additional 48 h at 37° C., 5% CO2, 95% air, and 100% relative humidity. For adherent cells, the assay is terminated by the addition of cold TCA. Cells are fixed in situ by the gentle addition of 50 μl of cold 50% (w/v) TCA (final concentration, 10% TCA) and incubated for 60 minutes at 4° C. The supernatant is discarded, and the plates are washed five times with tap water and air dried. Sulforhodamine B (SRB) solution (100 μl) at 0.4% (w/v) in 1% acetic acid is added to each well, and plates are incubated for 10 minutes at room temperature. After staining, unbound dye is removed by washing five times with 1% acetic acid and the plates are air dried. Bound stain is subsequently solubilized with 10 mM trizma base, and the absorbance is read on an automated plate reader at a wavelength of 515 nm. For suspension cells, the methodology is the same except that the assay is terminated by fixing settled cells at the bottom of the wells by gently adding 50 μl of 80% TCA (final concentration, 16% TCA). Using the seven absorbance measurements [time zero, (Tz), control growth, (C), and test growth in the presence of drug at the five concentration levels (Ti)], the percentage growth is calculated at each of the drug concentrations levels. Percentage growth inhibition is calculated as: [(Ti−Tz)/(C−Tz)]×100 for concentrations for which Ti>/=Tz [(Ti−Tz)/Tz]×100 for concentrations for which Ti<Tz
(§4) Three dose response parameters are calculated for each experimental agent. […] The drug concentration resulting in total growth inhibition (TGI) is calculated from Ti=Tz. […] Values are calculated for each of these three parameters if the level of activity is reached; however, if the effect is not reached or is exceeded, the value for that parameter is expressed as greater or less than the maximum or minimum concentration tested.
(§5) The methods described were used to test compounds 70 and 71 on a panel of sixty cell lines under a screening service provided by the Developmental Therapeutics Program at the National Institutes of Health. Shown in FIG. 1C are 1, RPMI-8226 leukemia cells; 2; NCI-H322M non-small cell lung cancer cells; 3, HT29 colon cancer cells; 4, U251 CNS cancer cells; 5, SK-MEL-28 melanoma cancer cells; 6, SK-OV-3 ovarian cancer cells; 7, RXF 393 renal cancer cells; 8, PC-3 prostate cancer cells; 9, MDA-MB-231 breast cancer cells.

[1] = system: sixty human tumor cell lines; assay: NCI DTP screen, means over sixty human tumor cell lines; format: cell-based; conditions: two-day treatment
Procedure: as §1, §2
Following drug addition, the plates are incubated for an additional 48 h at 37° C., 5% CO2, 95% air, and 100% relative humidity. For adherent cells, the assay is terminated by the addition of cold TCA. Cells are fixed in situ by the gentle addition of 50 μl of cold 50% (w/v) TCA (final concentration, 10% TCA) and incubated for 60 minutes at 4° C. […] Bound stain is subsequently solubilized with 10 mM trizma base, and the absorbance is read on an automated plate reader at a wavelength of 515 nm. […] Using the seven absorbance measurements [time zero, (Tz), control growth, (C), and test growth in the presence of drug at the five concentration levels (Ti)], the percentage growth is calculated at each of the drug concentrations levels. Percentage growth inhibition is calculated as: [(Ti−Tz)/(C−Tz)]×100 for concentrations for which Ti>/=Tz [(Ti−Tz)/Tz]×100 for concentrations for which Ti<Tz
as §4, with “tested. […]” for “tested.”

MALME-3M = assay: NCI DTP cell line screen (SRB), Melanoma; format: cell-based
DU-145 = assay: NCI DTP cell line screen (SRB), Prostate Cancer; format: cell-based
Procedure: as §1, §2, §3, §4, §5

PC-3 = assay: NCI DTP cell line screen (SRB), Prostate Cancer; format: cell-based
Procedure: as §1, §2, §3, §4, §5

CAKI-1 = assay: NCI DTP cell line screen (SRB), Renal Cancer; format: cell-based, human
Procedure: as §1, §2, §3, §4, §5

UO-31 = assay: NCI DTP cell line screen (SRB), Renal Cancer; format: cell-based, human
Procedure: as §1, §2, §3, §4, §5

RXF 393 = assay: NCI DTP cell line screen (SRB), Renal Cancer; format: cell-based, human
Procedure: as §1, §2, §3, §4, §5

ACHN = assay: NCI DTP cell line screen (SRB), Renal Cancer; format: cell-based, human
Procedure: as §1, §2, §3, §4, §5

[2] = read-out: LC50 (the source's name)

N=C(N)Nc1ccc(-n2nc(C(F)(F)F)cc2-c2ccc3c(ccc4ccccc43)c2)cc1 [Compound 71, 4-[5-(2-Phenanthrenyl)-3-(trifluoromethyl)-1H-pyrazol-1-yl]-phenyl-guanidine]
GI50 (SK-MEL-2): 1.57 µM | TGI (SK-MEL-2): 2.91E−06 | Mean Optical Densities (SK-MEL-2; Log10 Concentration −4.0): 0.324 | Percent Growth (SK-MEL-2; Log10 Concentration −4.0): −29% | Mean Optical Densities (SK-MEL-2; Log10 Concentration −5.0): −0.010 | Percent Growth (SK-MEL-2; Log10 Concentration −5.0): −100% | Mean Optical Densities (SK-MEL-2; Log10 Concentration −6.0): 0.780 | Percent Growth (SK-MEL-2; Log10 Concentration −6.0): 87% | Mean Optical Densities (SK-MEL-2; Log10 Concentration −7.0): 0.819 | Percent Growth (SK-MEL-2; Log10 Concentration −7.0): 97% | Mean Optical Densities (SK-MEL-2; Log10 Concentration −8.0): 0.775 | Percent Growth (SK-MEL-2; Log10 Concentration −8.0): 85% | mean TGI among the sixty cell lines [1]: 2.9 µM | GI50 ([1]; read-out: mean GI50 among the sixty cell lines): 1.2 µM | CC50 ([1]; read-out: mean LC50 among the sixty cell lines): 8.5 µM | GI50 (MALME-3M): 1.01 µM | TGI (MALME-3M): 2.33E−06 | Mean Optical Densities (MALME-3M; Log10 Concentration −4.0): 0.333 | Percent Growth (MALME-3M; Log10 Concentration −4.0): −50% | Mean Optical Densities (MALME-3M; Log10 Concentration −5.0): 0.089 | Percent Growth (MALME-3M; Log10 Concentration −5.0): −87% | Mean Optical Densities (MALME-3M; Log10 Concentration −6.0): 0.826 | Percent Growth (MALME-3M; Log10 Concentration −6.0): 50% | Mean Optical Densities (MALME-3M; Log10 Concentration −7.0): 0.838 | Percent Growth (MALME-3M; Log10 Concentration −7.0): 54% | Mean Optical Densities (MALME-3M; Log10 Concentration −8.0): 0.832 | Percent Growth (MALME-3M; Log10 Concentration −8.0): 52% | CC50 (MALME-3M; [2]): 100 µM | GI50 (DU-145): 1.55 µM | TGI (DU-145): 2.89E−06 | Mean Optical Densities (DU-145; Log10 Concentration −4.0): −0.019 | Percent Growth (DU-145; Log10 Concentration −4.0): −100% | Mean Optical Densities (DU-145; Log10 Concentration −5.0): −0.074 | Percent Growth (DU-145; Log10 Concentration −5.0): −100% | Mean Optical Densities (DU-145; Log10 Concentration −6.0): 0.760 | Percent Growth (DU-145; Log10 Concentration −6.0): 85% | Mean Optical Densities (DU-145; Log10 Concentration −7.0): 0.767 | Percent Growth (DU-145; Log10 Concentration −7.0): 87% | Mean Optical Densities (DU-145; Log10 Concentration −8.0): 0.694 | Percent Growth (DU-145; Log10 Concentration −8.0): 72% | CC50 (DU-145; [2]): 5.37 µM | GI50 (PC-3): 1.38 µM | TGI (PC-3): 2.67E−06 | Mean Optical Densities (PC-3; Log10 Concentration −4.0): 0.179 | Percent Growth (PC-3; Log10 Concentration −4.0): −26% | Mean Optical Densities (PC-3; Log10 Concentration −5.0): −0.022 | Percent Growth (PC-3; Log10 Concentration −5.0): −100% | Mean Optical Densities (PC-3; Log10 Concentration −6.0): 0.857 | Percent Growth (PC-3; Log10 Concentration −6.0): 75% | Mean Optical Densities (PC-3; Log10 Concentration −7.0): 0.846 | Percent Growth (PC-3; Log10 Concentration −7.0): 73% | Mean Optical Densities (PC-3; Log10 Concentration −8.0): 0.862 | Percent Growth (PC-3; Log10 Concentration −8.0): 75% | GI50 (CAKI-1): 1.83 µM | Mean Optical Densities (CAKI-1; Log10 Concentration −4.0): 0.315 | Percent Growth (CAKI-1; Log10 Concentration −4.0): −47% | Mean Optical Densities (CAKI-1; Log10 Concentration −5.0): −0.067 | Percent Growth (CAKI-1; Log10 Concentration −5.0): −100% | Mean Optical Densities (CAKI-1; Log10 Concentration −6.0): 1.804 | Percent Growth (CAKI-1; Log10 Concentration −6.0): 103% | Mean Optical Densities (CAKI-1; Log10 Concentration −7.0): 1.642 | Percent Growth (CAKI-1; Log10 Concentration −7.0): 89% | Mean Optical Densities (CAKI-1; Log10 Concentration −8.0): 1.735 | Percent Growth (CAKI-1; Log10 Concentration −8.0): 97% | TGI (CAKI-1; in M (unit assumed)): 3.22E−06 | GI50 (UO-31): 1.57 µM | Mean Optical Densities (UO-31; Log10 Concentration −4.0): 0.288 | Percent Growth (UO-31; Log10 Concentration −4.0): −35% | Mean Optical Densities (UO-31; Log10 Concentration −5.0): −0.030 | Percent Growth (UO-31; Log10 Concentration −5.0): −100% | Mean Optical Densities (UO-31; Log10 Concentration −6.0): 1.332 | Percent Growth (UO-31; Log10 Concentration −6.0): 87% | Mean Optical Densities (UO-31; Log10 Concentration −7.0): 1.407 | Percent Growth (UO-31; Log10 Concentration −7.0): 94% | Mean Optical Densities (UO-31; Log10 Concentration −8.0): 1.375 | Percent Growth (UO-31; Log10 Concentration −8.0): 91% | TGI (UO-31; in M (unit assumed)): 2.92E−06 | TGI (RXF 393): 2.91E−06 | Mean Optical Densities (RXF 393; Log10 Concentration −4.0): 0.385 | Percent Growth (RXF 393; Log10 Concentration −4.0): −4% | Mean Optical Densities (RXF 393; Log10 Concentration −5.0): 0.156 | Percent Growth (RXF 393; Log10 Concentration −5.0): −61% | Mean Optical Densities (RXF 393; Log10 Concentration −6.0): 0.629 | Percent Growth (RXF 393; Log10 Concentration −6.0): 53% | Mean Optical Densities (RXF 393; Log10 Concentration −7.0): 0.629 | Percent Growth (RXF 393; Log10 Concentration −7.0): 53% | Mean Optical Densities (RXF 393; Log10 Concentration −8.0): 0.582 | Percent Growth (RXF 393; Log10 Concentration −8.0): 42% | GI50 (ACHN): 1.67 µM | Mean Optical Densities (ACHN; Log10 Concentration −4.0): 0.291 | Percent Growth (ACHN; Log10 Concentration −4.0): −22% | Mean Optical Densities (ACHN; Log10 Concentration −5.0): 0.034 | Percent Growth (ACHN; Log10 Concentration −5.0): −91% | Mean Optical Densities (ACHN; Log10 Concentration −6.0): 0.964 | Percent Growth (ACHN; Log10 Concentration −6.0): 90% | Mean Optical Densities (ACHN; Log10 Concentration −7.0): 0.902 | Percent Growth (ACHN; Log10 Concentration −7.0): 81% | Mean Optical Densities (ACHN; Log10 Concentration −8.0): 0.898 | Percent Growth (ACHN; Log10 Concentration −8.0): 80% | TGI (ACHN; in M (unit assumed)): 3.15E−06
